Data published in publication PMC4666608, “Metabolic Profiling of Chicken Embryos Exposed to Perfluorooctanoic Acid (PFOA) and Agonists to Peroxisome Proliferator-Activated Receptors” (PLoS ONE, 2015).
Several values for one entry are separate records, joined by “and”; a condition that tells them apart may be missing. Equal entries are not always repeated.

Test system: chicken embryos
Assay: Plasma lipids (total, LDL, HDL cholesterol, triacylglycerols), photometric
Conditions: for HDL-C in plasma, mean ± SD / LDL-C in plasma, mean ± SD / LDL/HDL in plasma, mean ± SD / Total cholesterol in plasma, mean ± SD / Triacylglycerols in plasma, mean ± SD: E12; for LDL/HDL: plasma
Method: The experimental procedures in this study were approved by the Uppsala Ethical Committee for Research on Animals (Permit number C 211/12). Fertilized chicken eggs (Gallus gallus domesticus) were obtained from a local breeder (Ova Production AB, Vittinge, Sweden). The egg weights were 60 ± 4 g (mean and standard deviation). The eggs were incubated at 37.5°C and 60% relative humidity with automatic turning every six hours. The day the eggs were placed in the incubator was defined as embryonic day zero (E0). Chicken embryos were exposed to test substances by air sac injection in eggs incubated for seven days (E7). At this stage, the extraembryonic allantoic blood vessel network has grown to cover the inner shell membrane beneath the air sac and the injected substance will come in direct contact with the vascular network. The exposures were performed as follows: Unfertilized eggs and poorly developing embryos were recognized by candling and were sorted out. Eggs with embryos of normal size were collected and randomly distributed into the different treatment groups. On E7, the blunt end of each egg was wiped with alcohol and a small hole was drilled through the shell above the air sac. The dissolved test substance (20 μl) was deposited onto the inner shell membrane in the air sac and the hole was sealed with melted paraffin wax. Following injection, eggs were held horizontally and rotated for a few seconds to allow dispersal over the inner shell membrane in the air sac. Each egg was marked with a number specifying the treatment group and was placed at a random location in the incubator.
The doses were 150 μg/egg (approximately 2.5 mg/kg egg) for GW7647 and rosiglitazone and 50, 250 or 1000 μg/egg for PFOA (approximately 0.83, 4.2 and 18 mg/kg egg, respectively). Controls were injected with 20 μL vehicle only (DMSO). Due to the large number of embryos required, the experiment was divided into four replicate experiments (replicate A-D) performed the same way but on separate occasions. The number of exposed embryos was 10–15 for each treatment group and replicate.
A subset of randomly chosen embryos from each group (except the 1000 μg/egg group) was sampled for metabolomic analysis of allantoic fluid and blood plasma. Samples of allantoic fluid and blood were collected before decapitation and dissection of the embryo as described below. The egg shell was removed above the air cell without disrupting the inner shell membrane. Allantoic fluid was collected by gently inserting a needle through the inner shell membrane and into the allantoic sac and then aspiring the fluid with a syringe. The samples were placed in microtubes on ice during sampling and then stored at -70°C until processed for metabolomic analysis. Blood was collected from the allantoic artery, just proximal to its first branch. The artery was gently cleaned from membranes, lifted with a small spoon and then punctured with a needle. Blood flowing into the spoon was immediately collected with heparinized capillaries. Blood was stored in heparinized microtubes on ice during sampling and was then centrifuged at a speed of 1300g for 10 min at 4°C. Plasma was collected and stored at -70°C. The embryos were killed by decapitation and dissected immediately following blood sampling.
Total cholesterol, low-density lipoprotein (LDL) cholesterol, high-density lipoprotein (HDL) cholesterol, and triacylglycerols in plasma were analyzed with an Architect c8000 (Abbott Diagnostics, Abbott Park, IL, USA), using a photometric method, at the department of Clinical Chemistry and Pharmacology, Uppsala University Hospital, Sweden. The laboratory is accredited according to EN/ISO 15189 medical laboratory requirements. A total of 80 samples were analyzed; control: 7 females and 8 males; GW7647: 7 females and 8 males; rosiglitazone: 5 females and 12 males; 50 μg PFOA/egg: 11 females and 6 males; 250 μg PFOA/egg: 10 females and 6 males.

[1] = group PFOA 50 (µg/egg), group mean
[2] = group PFOA 50 (µg/egg), individual embryos
[3] = group PFOA 250 (µg/egg), group mean
[4] = group PFOA 250 (µg/egg), individual embryos

CC(C)(Sc1ccc(CCN(CCCCC2CCCCC2)C(=O)NC2CCCCC2)cc1)C(=O)O [GW7647, reference compound]
HDL-C in plasma, mean ± SD (150 μg/egg): 0.63 ± 0.05 mM | LDL-C in plasma, mean ± SD (150 μg/egg): 1.5 ± 0.2 mM | LDL/HDL in plasma, mean ± SD (150 μg/egg): 2.4 ± 0.4 | Total cholesterol in plasma, mean ± SD (150 μg/egg): 5.5 ± 0.3 mM | Triacylglycerols in plasma, mean ± SD (150 μg/egg): 4.9 ± 0.7 mM

O=C(O)C(F)(F)C(F)(F)C(F)(F)C(F)(F)C(F)(F)C(F)(F)C(F)(F)F [PFOA, perfluorooctanoic acid]
HDL-C in plasma, mean ± SD (PFOA 50 μg/egg): 0.59 ± 0.06 mM | LDL-C in plasma, mean ± SD (PFOA 50 μg/egg): 1.5 ± 0.2 mM | LDL/HDL in plasma, mean ± SD (PFOA 50 μg/egg): 2.5 ± 0.3 | Total cholesterol in plasma, mean ± SD (PFOA 50 μg/egg): 5.2 ± 0.8 mM | Triacylglycerols in plasma, mean ± SD (PFOA 50 μg/egg): 5.0 ± 0.8 mM | HDL-C in plasma, mean ± SD (PFOA 250 μg/egg): 0.57 ± 0.05 mM | LDL-C in plasma, mean ± SD (PFOA 250 μg/egg): 1.5 ± 0.3 mM | LDL/HDL in plasma, mean ± SD (PFOA 250 μg/egg): 2.6 ± 0.5 | Total cholesterol in plasma, mean ± SD (PFOA 250 μg/egg): 5.0 ± 0.5 mM | Triacylglycerols in plasma, mean ± SD (PFOA 250 μg/egg): 5.0 ± 0.7 mM | HDL-Cholesterol in plasma [1]: 0.59 mM | LDL-Cholesterol in plasma [1]: 1.5 mM | Total Cholesterol in plasma [1]: 5.2 mM | Triacylglycerols in plasma [1]: 5.0 mM | LDL/HDL [1]: 2.5 | HDL-Cholesterol in plasma [2]: 0.63 mM and 0.53 mM and 0.55 mM and 0.69 mM and 0.59 mM and 0.56 mM and 0.65 mM and 0.49 mM and 0.62 mM and 0.64 mM and 0.48 mM and 0.58 mM | LDL-Cholesterol in plasma [2]: 1.90 mM and 1.20 mM and 1.50 mM and 1.80 mM and 1.40 mM and 1.30 mM and 1.60 mM and 1.00 mM | Total Cholesterol in plasma [2]: 6 mM and 4.6 mM and 5.1 mM and 5.7 mM and 5.9 mM and 5 mM and 5.4 mM and 6.1 mM and 3.8 mM and 5.3 mM and 4.3 mM and 4.2 mM and 4.1 mM | Triacylglycerols in plasma [2]: 6 mM and 4.8 mM and 5.1 mM and 5.7 mM and 5 mM and 4.9 mM and 5.4 mM and 4.5 mM and 6.2 mM and 4.2 mM and 3.6 mM and 3.5 mM | LDL/HDL [2]: 3.0 and 2.3 and 2.7 and 2.9 and 2.2 and 2.4 and 2.1 and 2.0 and 2.6 and 3.1 and 2.5 | HDL-Cholesterol in plasma [3]: 0.57 mM | LDL-Cholesterol in plasma [3]: 1.5 mM | Total Cholesterol in plasma [3]: 5.0 mM | Triacylglycerols in plasma [3]: 5.0 mM | LDL/HDL [3]: 2.6 | HDL-Cholesterol in plasma [4]: 0.52 mM and 0.54 mM and 0.49 mM and 0.56 mM and 0.55 mM and 0.57 mM and 0.51 mM and 0.64 mM and 0.58 mM and 0.61 mM and 0.63 mM and 0.53 mM and 0.6 mM | LDL-Cholesterol in plasma [4]: 2.20 mM and 1.40 mM and 1.50 mM and 1.10 mM and 1.20 mM and 1.80 mM and 1.30 mM and 1.70 mM and 1.60 mM | Total Cholesterol in plasma [4]: 5.2 mM and 4 mM and 4.9 mM and 5.7 mM and 5 mM and 5.4 mM and 4.2 mM and 4.4 mM and 4.7 mM and 5.1 mM | Triacylglycerols in plasma [4]: 5.1 mM and 5.7 mM and 3.8 mM and 4.5 mM and 6 mM and 4.7 mM and 5.4 mM and 4.8 mM and 4.2 mM and 4.9 mM | LDL/HDL [4]: 4.2 and 2.6 and 2.9 and 2.7 and 2.0 and 2.4 and 2.8 and 2.1 and 1.7 and 2.2

CN(CCOc1ccc(CC2SC(=O)NC2=O)cc1)c1ccccn1 (centres unmarked) [Rosiglitazone, rosiglitazone, reference compound]
HDL-C in plasma, mean ± SD (150 μg/egg): 0.60 ± 0.06 mM | LDL-C in plasma, mean ± SD (150 μg/egg): 1.5 ± 0.2 mM | LDL/HDL in plasma, mean ± SD (150 μg/egg): 2.5 ± 0.4 | Total cholesterol in plasma, mean ± SD (150 μg/egg): 5.2 ± 0.4 mM | Triacylglycerols in plasma, mean ± SD (150 μg/egg): 5.4 ± 0.8 mM | HDL-Cholesterol in plasma (group mean): 0.60 mM | LDL-Cholesterol in plasma (group mean): 1.5 mM | Total Cholesterol in plasma (group mean): 5.2 mM | Triacylglycerols in plasma (group mean): 5.4 mM | LDL/HDL (group mean): 2.5 | HDL-Cholesterol in plasma (individual embryos): 0.65 mM and 0.59 mM and 0.53 mM and 0.58 mM and 0.55 mM and 0.71 mM and 0.6 mM and 0.7 mM and 0.57 mM and 0.51 mM and 0.69 mM and 0.52 mM and 0.61 mM | LDL-Cholesterol in plasma (individual embryos): 2.00 mM and 1.70 mM and 1.20 mM and 1.50 mM and 1.10 mM and 1.60 mM and 1.40 mM and 1.00 mM and 1.80 mM | Total Cholesterol in plasma (individual embryos): 5.8 mM and 4.8 mM and 4.1 mM and 5.4 mM and 4.9 mM and 5.5 mM and 5.9 mM and 5.2 mM and 5.3 mM and 5 mM and 5.6 mM | Triacylglycerols in plasma (individual embryos): 4.5 mM and 4.3 mM and 4.7 mM and 6 mM and 5 mM and 5.3 mM and 5.6 mM and 4.6 mM and 7.1 mM and 6.3 mM and 6.4 mM and 5.5 mM | LDL/HDL (individual embryos): 3.1 and 2.9 and 2.3 and 2.6 and 2.7 and 2.1 and 2.8 and 1.7 and 2.5 and 2.0 and 2.2 and 3.0 and 3.5
